This data set can be described thus: Isomerization of 4-hydroxy tamoxifen in hydroalcoholic solutions at 25°, 30° and 40° C., Z/E isomers by HPLC (Example 1). It counts as physicochemical. The procedure: Hydroalcoholic solutions containing 4-hydroxy tamoxifen were prepared, based on the following gel formula: […]
In the hydroalcoholic solutions, phosphate buffer was substituted for Klucel. The composition of the buffer was as follows:
At each of the stated concentrations, separate solutions containing Z-4-hydroxy tamoxifen or a mixture of Z- and E-4-hydroxy tamoxifen were prepared.
Each solution was subdivided into three parts in 30 ml brown glass bottles, then placed in ovens regulated at 25°, 30°, and 40° C.
The relative amounts of Z- and E-4-hydroxy tamoxifen isomers were determined at the initiation of the study and at 2-week, 1-month, 2-month, 3-month, 4-month and 5-month time points.
Operating parameters for the HPLC were as follows:
The order of elution was as follows: • 4-OHT E: retention time about 13.3 min • 4-OHT Z: retention time about 15.0 min.
Percentages of each isomer were calculated using the following formulas: [formula] [formula] D. Data fitting:
The reversible isomerization reaction and the equilibrium reaches are lied by the following relationship: [formula] where • A0=initial concentration of the reagent • Aeq=concentration of the same reagent at equilibrium • A=the concentration of A at time t • kf=forward rate constant • kr=reverse rate constant • t=time measured in months
A plot of log [formula] as a function of time gives a straight line fit with a slope of [formula] and a y-intercept of 0. E. Results

[1] abbreviates: 25° C., nominal 4-hydroxy tamoxifen concentration (Z + E) in solution 0.02%.
[2] abbreviates: 25° C., nominal concentration (Z + E) 0.04%.
[3] abbreviates: 25° C., nominal concentration (Z + E) 0.06%.
The mark [4] stands for this setting: 25° C., nominal concentration (Z + E) 0.08%.
Where [5] appears, read: 25° C., nominal concentration (Z + E) 0.10%.
The mark [6] stands for this setting: 30° C., nominal concentration (Z + E) 0.02%.
[7] abbreviates: 30° C., nominal concentration (Z + E) 0.04%.
Setting [8] is: 30° C., nominal concentration (Z + E) 0.06%.
Where [9] appears, read: 30° C., nominal concentration (Z + E) 0.08%.
Setting [10] is: 30° C., nominal concentration (Z + E) 0.10%.
The mark [11] stands for this setting: 40° C., nominal concentration (Z + E) 0.02%.
[12] abbreviates: 40° C., nominal concentration (Z + E) 0.04%.
The mark [13] stands for this setting: 40° C., nominal concentration (Z + E) 0.06%.
Where [14] appears, read: 40° C., nominal concentration (Z + E) 0.08%.
[15] abbreviates: 40° C., nominal concentration (Z + E) 0.10%.

Each structure is given as a SMILES string.

For the compound `CC/C(=C(\c1ccc(O)cc1)c1ccc(OCCN(C)C)cc1)c1ccccc1` [ICI batch Bx 17], the Rate constant is, setting by setting: under setting [1], 0.0347 month^−1; under setting [2], 0.0484 month^−1; under setting [3], 0.0916 month^−1; under setting [4], 0.1476 month^−1; under setting [5], 0.2169 month^−1; under setting [6], 0.0254 month^−1. Also, the Rate constant amounted to 0.0801 month^−1 under setting [7]; 0.1563 month^−1 under setting [8]; 0.2718 month^−1 under setting [9]; 0.3103 month^−1 under setting [10]; 0.0722 month^−1 under setting [11]; 0.2323 month^−1 under setting [12]. Besides, the Rate constant by setting is: under setting [13], 0.3924 month^−1; under setting [14], 0.5095 month^−1; under setting [15], 0.6960 month^−1.
As for `CC/C(=C(\c1ccc(O)cc1)c1ccc(OCCN(C)C)cc1)c1ccccc1` [Batch PANCHIM 7421], the Rate constant by setting is: under setting [1], 0.0225 month^−1; under setting [2], 0.0637 month^−1; under setting [3], 0.0886 month^−1; under setting [4], 0.1352 month^−1; under setting [5], 0.1827 month^−1; under setting [6], 0.0457 month^−1. The Rate constant came to 0.0864 month^−1 under setting [7]; 0.1487 month^−1 under setting [8]; 0.1900 month^−1 under setting [9]; 0.2568 month^−1 under setting [10]; 0.1097 month^−1 under setting [11]; 0.2287 month^−1 under setting [12]. The Rate constant runs as follows: under setting [13], 0.3877 month^−1; under setting [14], 0.5311 month^−1; under setting [15], 0.6300 month^−1.

Values taken from patent US20050208139A1 (Ascend Therapeutics, Inc., priority 2004, published 2005).
